Assay results from EP0257993B1, “Nucleic acid fragment encoding herbicide resistant plant acetolactate synthase” (priority 1986, dated 1988).

How the values were obtained:
Hra mutant plants = assay: Foliar application to Hra mutant plants; assay type: in vivo, Nicotiana tabacum
tobacco callus = assay: Growth of tobacco mutant callus (C3, S4, Hra) on herbicide; assay type: cell-based, Nicotiana tabacum var. Xanthi
Protocol: (§1) Callus cultures of sensitive tobacco (Nicotiana tabacum var. Xanthi) were exposed to sulfometuron methyl at 2 ppb according to the method described by Chaleff, U.S. 4,443,971. […] Plants were regenerated from Hra callus cultures. […] ALS activity in extracts of leaves of wild type and homozygous Hra mutant tobacco plants was determined.

ALS [1] = assay type: biochemical, Nicotiana tabacum; conditions: C3 and S4 lines
Protocol: as §1

ALS [2] = assay: ALS assay of leaf extracts, wild type tobacco; assay type: biochemical, Nicotiana tabacum CV.NK326 or K14; conditions: DPX-F6025 at 10ppb, activity without herbicide = 100 percent
Protocol: (§2) Approximately 1-2 weeks late shoots developing on kanamycin-selected explants were excised with a sterile scalpel and planted in A medium containing 100 mg/l kanamycin. Root formation on selective and non-selective media was recorded within 3 weeks. Shoots which rooted in kanamycin were transferred to soil and grown in a growth chamber as described above. After 3 to 5 weeks, but before flowering had occurred, leaf tissue was excised and used for ALS assays as described in Example VI. […] Individual flowers were bagged to permit self-fertilization without cross-pollination. Mature seeds were harvested and progeny tests were conducted to determine inheritance of the herbicide resistance trait. Seeds were surface sterilized as described above, dried and planted on SG medium (1/4 MS salts, 0.75% sucrose, 0.8% Agar) in the presence or absence of herbicide (DPX-F6025, Classic®). […] A segregration ratio of 3 resistant progeny to 1 sensitive indicated the presence of a single-site insertion of the SURB-Hra gene in the trasnformant which was stably inherited. […] Higher ratios of resistant to sensitive progeny indicated multiple insertions at unlinked positions in the genome. The 15/1 ratio indicates the presence of 2 unlinked SURB-Hra genes and 255/1 ratio indicates 4 unlinked SURB-Hra genes in the transformants K14 #40 and K14 #7, respectively.
Keep on ice. • 2. […] Read at OD 530.

[3] = system: progeny of tobacco transformants; assay: Progeny test of seeds on SG medium with herbicide; assay type: in vivo, Nicotiana tabacum CV.NK326 or K14
Protocol: as §2

ALS [4] = assay: ALS assay of leaf extracts, wild-type tomato; assay type: biochemical, Lycopersicon esculentum var. Herbst Red Cherry
Protocol: After approximately 2-4 weeks, shoots developing off of kanamycin-selected cotyledons were excised and planted in OMS media containing 500 mg/L cefotaxime and 100 mg/L kanamycin. Tomato shoots which rooted in kanamycin after about 2-3 weeks were transferred to soil in 8" pots and covered with plastic bags. The plants were grown under mixed fluorescent and incandescent lights for a 12 hr, 24°C day; 12 hr, 20°C night cycle, with approximately 80% relative humidity, for one week before removing the plastic bags. The plants were grown for another 2-4 weeks before performing ALS assays. […]
Keep on ice. • 2. […] 16K rpm, 4°C. • 4. […] Incubate on ice for 30 minutes. • 6. […] Decant supernatant. • 7. Resuspend pellet in 1 ml cold column buffer. • 8. […] Let this run through column. • 9. Elute proteins with 2X volume of extract loaded. […] Incubate reaction for 1 hour, 30°C. • 12. […] Spin in microfuge 5 minutes. • 13. […] Read at OD 530.

Compound: CC(C)C1(C)N=C(c2ncccc2C(=O)O)NC1=O.CC(C)N (stereo not drawn)
- cross resistance to foliar application (Hra mutant plants): cross resistant

Compound: CCOC(=O)c1ccccc1S(=O)(=O)NC(=O)Nc1nc(Cl)cc(OC)n1 [2-[[(4-chloro-6-methoxypyrimidin-2-yl)aminocarbonyl]aminosulfonyl]benzoic acid, ethyl ester]
- cross resistance to foliar application (Hra mutant plants): cross resistant

Compound: Cc1cc(C)n2nc(S(=O)(=O)Nc3c(Cl)cccc3Cl)nc2n1 [N-(2,6-dichlorphenyl)-5,7-dimethyl[1,2,4]triazolo [1,5-A]pyrimidin-2-sulfonamide]
- cross resistance to foliar application (Hra mutant plants): cross resistant

Compound: COC(=O)c1c(C)cccc1S(=O)(=O)NC(=O)Nc1nc(C)cc(OC)n1 [2-[[(4-methoxy-6-methylpyrimidin-2-yl)aminocarbonyl]aminosulfonyl]-6-methylbenzoic acid, methyl ester]
- cross resistance to foliar application (Hra mutant plants): cross resistant

Compound: COC(=O)c1ccccc1S(=O)(=O)NC(=O)Nc1nc(C)cc(C)n1 [sulfometuron methyl]
- selective herbicide resistance conferred by the mutation (tobacco callus; C3 cell line (SURA-C3, proline-to-glutamine at position 197)): conferred resistance
- tolerated concentrations compared with that required to completely inhibit the growth of wild type callus (tobacco callus; Hra cell line): one thousand times greater
- selective concentration which completely inhibits the growth (tobacco callus; S4 cell line): 200 ppb
- resistance of ALS enzyme activity compared with ALS from wild type (ALS [1]): one-hundred fold

Compound: COC(=O)c1ccccc1S(=O)(=O)NC(=O)Nc1nc(C)cc(C)n1 [2-[[(4,6-dimethylpyrimidin-2-yl)aminocarbonyl]aminosulfonyl]benzoic acid, methyl ester]
- cross resistance to foliar application (Hra mutant plants): cross resistant

Compound: CCOC(=O)c1ccccc1S(=O)(=O)NC(=O)Nc1nc(Cl)cc(OC)n1 [DPX-F6025]
- % Unhibited ALS Activity (ALS [2]; K14 wT): 7%
- % Unhibited ALS Activity (ALS [2]; NK326(wT)): 7%
- Progeny Resistant/Sensitive ([3]; K14 #7, 100ppb DPX-F6025): 990/4
- Progeny Resistant/Sensitive ([3]; K14 #7, 1000bbp DPX-F6025): 109/1
- Progeny Resistant/Sensitive ([3]; K14 #11, 100ppb DPX-F6025): 208/85
- Progeny Resistant/Sensitive ([3]; K14 #11, 1000bbp DPX-F6025): 127/76
- Progeny Resistant/Sensitive ([3]; K14 #27, 100ppb DPX-F6025): 129/45
- Progeny Resistant/Sensitive ([3]; K14 #27, 1000bbp DPX-F6025): 108/42
- Progeny Resistant/Sensitive ([3]; K14 #29, 100ppb DPX-F6025): 192/46
- Progeny Resistant/Sensitive ([3]; K14 #29, 1000bbp DPX-F6025): 163/67
- Progeny Resistant/Sensitive ([3]; K14 #32c, 100ppb DPX-F6025): 140/65
- Progeny Resistant/Sensitive ([3]; K14 #32c, 1000bbp DPX-F6025): 63/86
- Progeny Resistant/Sensitive ([3]; K14 #40, 100ppb DPX-F6025): 218/18
- Progeny Resistant/Sensitive ([3]; K14 #40, 1000bbp DPX-F6025): 212/26
- Progeny Resistant/Sensitive ([3]; K14 #41, 100ppb DPX-F6025): 255/35
- Progeny Resistant/Sensitive ([3]; K14 #41, 1000bbp DPX-F6025): 296/74
- Progeny Resistant/Sensitive ([3]; K14 #42, 100ppb DPX-F6025): 162/74
- Progeny Resistant/Sensitive ([3]; K14 #42, 1000bbp DPX-F6025): 77/72
- Progeny Resistant/Sensitive ([3]; K14 #53, 100ppb DPX-F6025): 130/59
- Progeny Resistant/Sensitive ([3]; K14 #53, 1000bbp DPX-F6025): 149/139
- Progeny Resistant/Sensitive ([3]; K14 #54A, 100ppb DPX-F6025): 137/55
- Progeny Resistant/Sensitive ([3]; K14 #54A, 1000bbp DPX-F6025): 100/72
- Progeny Resistant/Sensitive ([3]; K24 #31, 100ppb DPX-F6025): 106/35
- Progeny Resistant/Sensitive ([3]; K24 #31, 1000bbp DPX-F6025): 99/34
- Progeny Resistant/Sensitive ([3]; NK326 #9c, 100ppb DPX-F6025): 163/49
- Progeny Resistant/Sensitive ([3]; NK326 #9c, 1000bbp DPX-F6025): 99/63
- Progeny Resistant/Sensitive ([3]; NK326 #10, 100ppb DPX-F6025): 93/31
- Progeny Resistant/Sensitive ([3]; NK326 #10, 1000bbp DPX-F6025): 96/24
- Progeny Resistant/Sensitive ([3]; NK326 #10c, 100ppb DPX-F6025): 333/45
- Progeny Resistant/Sensitive ([3]; NK326 #10c, 1000bbp DPX-F6025): 290/76
- Progeny Resistant/Sensitive ([3]; NK326 #9d, 100ppb DPX-F6025): 288/67
- Progeny Resistant/Sensitive ([3]; NK326 #9d, 1000bbp DPX-F6025): 150/58
- Progeny Resistant/Sensitive ([3]; X14 #54, 100ppb DPX-F6025): 99/38
- Progeny Resistant/Sensitive ([3]; X14 #54, 1000bbp DPX-F6025): 92/43
- Progeny Resistant/Sensitive ([3]; nk326 #1, 100ppb DPX-F6025): 98/37
- Progeny Resistant/Sensitive ([3]; nk326 #1, 1000bbp DPX-F6025): 90/35
- Percent Uninhibited ALS Activity (ALS [4]; 10ppb): 15%
- Percent Uninhibited ALS Activity (ALS [4]; 100ppb): 5%
- Percent Uninhibited ALS Activity (ALS [4]; 1000ppb): 4%

Compound: CCC1C=NC(C2=NC(C)(C(C)C)C(=O)N2)=C(C(=O)O)C1 (stereo not drawn) [5-ethyl-4,5-dihydro-2-[4-methyl-4-(1-methylethyl)-5-oxo-1H-imidazol-2-yl]-3-pyridinecarboxylic acid]
- cross resistance to foliar application (Hra mutant plants): cross resistant

Compound: COc1cc(OC)nc(NC(=O)NS(=O)(=O)c2cccc3c2S(=O)(=O)C(C)C3)n1 (stereo not drawn) [N-[(4,6-dimethoxypyrimidin-2-yl)aminocarbonyl]-2,3-dihydro-2-methylbenzo[β]thiophene-7-sulfonamide, 1,1-dioxide]
- cross resistance to foliar application (Hra mutant plants): cross resistant

Compound: 6-(4-isopropyl-4-methyl-5-oxo-2-imidazolin-2-yl)-m-toluic acid and p-toluic acid, methyl esters
- cross resistance to foliar application (Hra mutant plants): cross resistant

Compound: COc1cc(OC)nc(NC(=O)NS(=O)(=O)c2c(Cl)ccc3c2S(=O)(=O)N(C)CC3)n1 [7-chloro-N-[(4,6-dimethoxypyrimidin-2-yl)aminocarbonyl]-3,4-dihydro-2-methyl-2H-1,2-benzothiazine-8-sulfonamide, S,S-dioxide]
- cross resistance to foliar application (Hra mutant plants): cross resistant

Compound: COc1nc(C)nc(NC(=O)NS(=O)(=O)c2ccccc2OCCCl)n1 [2-(2-chloroethoxy)-N-[(4-methoxy-6-methyl-1,3,5-triazin-2-yl)aminocarbonyl]benzenesulfonamide]
- cross resistance to foliar application (Hra mutant plants): cross resistant

Compound: COc1nc(C)nc(NC(=O)NS(=O)(=O)c2ccccc2Cl)n1 [2-chloro-N-[(4-methoxy-6-methyl-1,3,5-triazin-2-yl)aminocarbonyl]benzenesulfonamide]
- cross resistance to foliar application (Hra mutant plants): cross resistant

Compound: Cc1cc(C)n2nc(S(=O)(=O)Nc3c(C)cccc3Cl)nc2n1 [N-(2-chloro-6-methylphenyl)-5,7-dimethyl[1,2,4]triazolo[1,5-A]pyrimidin-2-sulfonamide]
- cross resistance to foliar application (Hra mutant plants): cross resistant

Compound: Cc1cc(C)n2nc(S(=O)(=O)Nc3c(C)cccc3[N+](=O)[O-])nc2n1 [5,7-dimethyl-N-(2-methyl-6-nitrophenyl)[1,2,4]triazolo[1,5-A]pyrimidin-2-sulfonamide]
- cross resistance to foliar application (Hra mutant plants): cross resistant

Compound: CC(C)C1(C)N=C(c2nc3ccccc3cc2C(=O)O)NC1=O (stereo not drawn) [2-[4,5-dihydro-4-methyl-4-(1-methylethyl)-5-oxo-1H-imidazol-2-yl]-3-quinolinecarboxylic acid]
- cross resistance to foliar application (Hra mutant plants): cross resistant
